Laboratory results: patent publication US20220071952A1, “METHODS OF TREATING AND PREVENTING HEPATOTOXICITY” (Natreon, Inc., priority 2020, published 2022)

Experiments:
[1] = system: CCl4-induced hepatotoxicity in mice; experiment: Synergistic hepatoprotective activity of DBPs against CCl4-induced hepatotoxicity (Example IV); conditions: for ACP / ALP / ALT / AST / Total Protein: CCl4 1 ml/kg, mean ± SEM, n=4
[2] = system: alcohol-induced hepatotoxicity in mice; experiment: Synergistic hepatoprotective activity of DBPs against alcohol-induced hepatotoxicity (Example IV); conditions: for ACP / ALP / ALT / AST / Total Protein: alcohol 5 g/kg, mean ± SEM, n=4
Experimental: Hepatotoxicity was induced by oral administration of alcohol (ethanol: 5 g/kg) from stock 400 mg/ml twice daily for 15 days.
3-OH-DBP and 3,8-(OH)2-DBP were each separately suspended in 0.3% CMC and administered at a dose of 10 mg/kg body weight per orally for 15 days. During the 15 days treatment, body weight, food intake, and water intake were monitored at regular intervals. Following 15 days of treatment physical parameters (relative organ weight) and biochemical parameters (plasma total protein content, ALT, AST, ALP, and ACP) were studied.
3-OH-DBP (2 mg/kg body weight, 10 mg/kg body weight);
3,8-(OH)2-DBP (10 mg/kg body weight, 50 mg/kg body weight); and

[3] = Body weight, food intake and water intake during alcohol-induced hepatotoxicity study (Example III); format: in vivo, Swiss Albino mice; conditions: for change in body weight / change in food intake / change in water intake: 10 mg/kg p.o. + alcohol, 15 days; for body weight / food intake / water intake: 10 mg/kg p.o. + alcohol 5 g/kg p.o. twice daily, mean ± SD
Experimental: (§1) Swiss Albino male and female mice weighing approximately 30±5 g, 2 month old mice were obtained from National Research Institute of Ayurveda for Drug Development (Govt. of India), Kolkata, and were housed in polypropylene cages at 22±3° C., relative air humidity of 45 to 55%, with 12.00 hr light & dark cycle (lighting on from 6:00 AM to 6:00 PM). Mice were provided a standard pellet chow diet (carbohydrate 65.5%, protein 17.6%, fat 6.6%) and distilled water ad libitum. The mice were acclimatized for one week in the laboratory conditions, before being used in the experiment. All experiments were conducted between 10.00 hr and 14.00 hr. Principles of laboratory animals care (NIH publication no. 85-23, revised 1985) were followed.
(§2) Vehicle control animals (“Con Veh”) were administered 0.3% CMC orally for 15 days.
(§3) Animals receiving ethanol (“Alc+0.3 CMC”, “3-OH-DBP+Alc”, “3,8-(OH)2-DBP+Alc”) were administered ethanol in 0.3% CMC orally as discussed above.
(§4) Results were expressed in terms of mean±SD (n=8). The data were subjected to one way ANOVA followed by Tukey's test using GraphPad Prism 4.0 software to establish statistical significance (*p<0.05, **p<0.01, ***p<0.001 vs. vehicle control; # p<0.05, ## p<0.01, ### p<0.001 vs. animals administered ethanol only).

[4] = system: alcohol-induced hepatotoxicity in mice; experiment: Alcohol (ethanol)-induced hepatotoxicity in mice, biochemical and physical parameters (Example III); format: in vivo, Swiss Albino mice; conditions: for Relative organ weight (w.r.t body weight) Kidney / Relative organ weight (w.r.t body weight) Liver / ACP / ALP / ALT(SGPT) / AST(SGOT) / Total Protein: 10 mg/kg p.o. + alcohol 5 g/kg p.o. twice daily, mean ± SD; for ACP / ALP / ALT(SGPT) / AST(SGOT) / Total Protein: plasma
Experimental: as §1
In the present study simultaneous administration of alcohol (ethanol) and treatment with 3-OH-DBP and 3,8-(OH)2-DBP was done.
as §2, §3, §4

[5] = female mice, doses 3-OH-DBP 2, 3,8-(OH)2-DBP 10, 1:5 combination 12 mg/kg b.w.
[6] = female mice, doses 3-OH-DBP 10, 3,8-(OH)2-DBP 50, 1:5 combination 60 mg/kg b.w.
[7] = male mice, doses 3-OH-DBP 2, 3,8-(OH)2-DBP 10, 1:5 combination 12 mg/kg b.w.
[8] = male mice, doses 3-OH-DBP 10, 3,8-(OH)2-DBP 50, 1:5 combination 60 mg/kg b.w.
[9] = female mice, doses 3-OH-DBP 2, 3,8-(OH)2-DBP 10, combination 12 mg/kg b.w.
[10] = female mice, doses 3-OH-DBP 10, combination 60 mg/kg b.w.
[11] = female mice (Table 14), 10 mg/kg p.o.
[12] = male mice (Table 13), 10 mg/kg p.o.

## O=c1oc2cc(O)ccc2c2ccccc12 [3-OH-DBP, 3-hydroxy-dibenzo-alpha-pyrone]
[1]; CCl4-induced hepatotoxicity, male and female mice
  hepatoprotective activity (conclusion, Tables 19 and 20): hepatoprotective activity in a dose dependent manner
[1]; [5]
  ACP: 48 ± 5.6 (b) U/L
  ALP: 75 ± 13 (b) IU/L
  ALT: 81 ± 7 (b) IU/L
  AST: 90 ± 4.2 (b) IU/L
  Total Protein: 4.7 ± 0.59 g/dL
  ACP, difference in values from CCl4 treated mice: A = (a-b = 32) U/L
  ALP, difference in values from CCl4 treated mice: A = (a-b = 15) IU/L
  ALT, difference in values from CCl4 treated mice: A = (a-b = 6) IU/L
  AST, difference in values from CCl4 treated mice: A = (a-b = 15) IU/L
[1]; [6]
  ACP: 55 ± 4.1 (e) U/L
  ALP: 78 ± 6.9 (e) IU/L
  ALT: 75 ± 7.6*(e) IU/L
  AST: 69 ± 4.9 (e) IU/L
  Total Protein: 7.2 ± 0.23 g/dL
  ACP, difference in values from CCl4 treated mice: D = (a-e = 26) U/L
  ALP, difference in values from CCl4 treated mice: D = (a-e = 12) IU/L
  ALT, difference in values from CCl4 treated mice: D = (a-e = 12) IU/L
  AST, difference in values from CCl4 treated mice: D = (a-e = 36) IU/L
[1]; [7]
  ACP: 49 ± 3.6***,#( b) U/L
  ALP: 79 ± 12#(b) IU/L
  ALT: 72 ± 3.4**(b) IU/L
  AST: 70 ± 4##(b) IU/L
  Total Protein: 5.6 ± 0.37 g/dL
  ACP, difference in values from CCl4 treated mice: A = (a-b = 37) U/L
  ALP, difference in values from CCl4 treated mice: A = (a-b = 63) IU/L
  ALT, difference in values from CCl4 treated mice: A = (a-b = 8) IU/L
  AST, difference in values from CCl4 treated mice: A = (a-b = 33) IU/L
[1]; [8]
  ACP: 47 ± 2.6 (e) U/L
  ALP: 78 ± 6.9#(e) IU/L
  ALT: 67 ± 3.6 (e) IU/L
  AST: 69 ± 2.7 (e) IU/L
  Total Protein: 6.3 ± 0.46 g/dL
  ACP, difference in values from CCl4 treated mice: D = (a-e = 39) U/L
  ALP, difference in values from CCl4 treated mice: D = (a-e = 64) IU/L
  ALT, difference in values from CCl4 treated mice: D = (a-e = 13) IU/L
  AST, difference in values from CCl4 treated mice: D = (a-e = 34) IU/L
[2]; alcohol-induced hepatotoxicity, male and female mice
  hepatoprotective activity (conclusion, Tables 17 and 18): hepatoprotective activity in a dose dependent manner
[2]; [9]
  ACP: 19.3 ± 1 (b) U/L
  ALP: 106.6 ± 8 (b) ^ IU/L
  ALT: 85.31 ± 7.89 (b) IU/L
  AST: 54.81 ± 8.13 (b)^ IU/L
  Total Protein: 7.21 ± 0.36 g/dL
  ACP, difference in values from alcohol treated mice: A = (a-b = 1.97) U/L
  ALP, difference in values from alcohol treated mice: A = (a-b = 33.4) IU/L
  ALT, difference in values from alcohol treated mice: A = (a-b = 3.53) IU/L
  AST, difference in values from alcohol treated mice: A = (a-b = 14.14) IU/L
[2]; [10]
  ACP: 12.1±***,^# (e) U/L
  ALP: 79 ± 11 (e) IU/L
  ALT: 57.15 ± 3.46 (e) IU/L
  AST: 41.11 ± 6.98 (e)^ IU/L
  Total Protein: 6.53 ± 0.32 g/dL
  ACP, difference in values from alcohol treated mice: D = (a-e = 8.9) U/L
  ALP, difference in values from alcohol treated mice: D = (a-e = 61) IU/L
  ALT, difference in values from alcohol treated mice: D = (a-e = 31.69) IU/L
  AST, difference in values from alcohol treated mice: D = (a-e = 27.84) IU/L
[2]; [7]
  ACP: 13.3 ± 1.03 (b) U/L
  ALP: 90.2 ± 6.68 (b) IU/L
  ALT: 74.9 ± 1.66 (b) IU/L
  AST: 46.5 ± 3.19 (b) IU/L
  Total Protein: 6.68 ± 0.43 g/dL
  ACP, difference in values from alcohol treated mice: A = (a-b = 5.3) U/L
  ALP, difference in values from alcohol treated mice: A = (a-b = 43.8) IU/L
  ALT, difference in values from alcohol treated mice: A = (a-b = 31.1) IU/L
  AST, difference in values from alcohol treated mice: A = (a-b = 13.5) IU/L
[2]; [8]
  ACP: 11.6 ± 0.89 (e) U/L
  ALP: 83.4 ± 4.87 (e) IU/L
  ALT: 65.4 ± 2.59(e) IU/L
  AST: 39.9 ± 5.30 (e) IU/L
  Total Protein: 8.24 ± 0.43 g/dL
  ACP, difference in values from alcohol treated mice: D = (a-e = 7) U/L
  ALP, difference in values from alcohol treated mice: D = (a-e = 50.6) IU/L
  ALT, difference in values from alcohol treated mice: D = (a-e = 40.6) IU/L
  AST, difference in values from alcohol treated mice: D = (a-e = 20.8) IU/L
[3]; female mice
  change in body weight: No significant change
  change in food intake: No significant change
  change in water intake: No significant change
[3]; female mice, Day 0
  body weight: 26.83 ± 1.60 gm
  food intake: 8.14 ± 1.67 gm
  water intake: 4.16 ± 0.60 mL
[3]; female mice, Day 5
  body weight: 25.5 ± 1.22 gm
  water intake: 4.32 ± 0.28 mL
[3]; female mice, Day 10
  body weight: 24.33 ± 1.97 gm
  food intake: 16.38 ± 1.18 gm
  water intake: 1.85 ± 0.30 mL
[3]; female mice, Day 15
  body weight: 25.17 ± 0.75 gm
  food intake: 15.88 ± 0.76 gm
  water intake: 1.84 ± 0.18 mL
[3]; male mice
  change in body weight: No significant change
  change in food intake: No significant change
  change in water intake: No significant change
[3]; male mice, Day 0
  body weight: 24.33 ± 2.25 gm
  food intake: 14.02 ± 0.06 gm
  water intake: 2.05 ± 0.23 mL
[3]; male mice, Day 5
  body weight: 24 ± 1.55 gm
  food intake: 14.18 ± 0.72 gm
  water intake: 2 ± 0.27 mL
[3]; male mice, Day 10
  body weight: 25.5 ± 1.05 gm
  food intake: 14.51 ± 0.77 gm
  water intake: 1.93 ± 0.23 mL
[3]; male mice, Day 15
  body weight: 25.3 ± 0.52 gm
  food intake: 14.45 ± 0.78 gm
  water intake: 1.98 ± 0.25 mL
[4]; 10 mg/kg p.o., 15 days
  hepatoprotective activity against alcohol-induced hepatotoxicity: significant hepatoprotective activity
[4]; [11]
  effect on alcohol-induced increased plasma ACP: significantly (p<0.05) attenuated
  effect on alcohol-induced increased plasma ALT: significantly (p<0.001) attenuated
  effect on alcohol-induced increased plasma AST: significantly (p<0.05; p<0.01) attenuated
  effect on plasma ALP level compared with ALC group: significantly (p<0.05) decreased
[4]; female mice, 15 days
  Relative organ weight (w.r.t body weight) Kidney: 0.013 ± 0.001^
  Relative organ weight (w.r.t body weight) Liver: 0.052 ± 0.011^
  ACP: 5.58 ± 2.19^# IU/L
  ALP: 32.95 ± 13.06^# IU/L
  ALT(SGPT): 6.72 ± 2.88^## IU/L
  AST(SGOT): 6.19 ± 1.94^# IU/L
  Total Protein: 2.75 ± 0.167 g/dL
[4]; [12]
  effect on alcohol-induced increased plasma ACP: significantly (p<0.05) attenuated
  effect on alcohol-induced increased plasma ALT: significantly (p<0.05) attenuated
  effect on alcohol-induced increased plasma AST: significantly (p<0.05) attenuated
[4]; male mice, 15 days
  Relative organ weight (w.r.t body weight) Kidney: 0.014 ± 0.001
  Relative organ weight (w.r.t body weight) Liver: 0.044 ± 0.001
  ACP: 5.36 ± 2.34^# IU/L
  ALP: 20.20 ± 6.18^# IU/L
  ALT(SGPT): 11.93 ± 4.364^# IU/L
  AST(SGOT): 5.83 ± 1.75^# IU/L
  Total Protein: 2.75 ± 0.167 g/dL
